The assay concerns Male Sprague Dawley rats. As to the kind of experiment: Novelty Suppressed Feeding Test (NSFT) with home cage feeding control. It counts as in vivo, rat. As to the method: Behavioral Analysis Using the Novelty Suppressed Feeding Test (NSFT): The NSFT was conducted as previously described (Warner-Schmidt, J. L. & Duman, R. S. PNAS 104(11): 4647-52 (2007)). Rats were fasted in their home cages for 20 hr and then placed in a Plexiglas open field (76.5 cm×76.5 cm×40 cm) with a small amount of food in the center. Animals were allowed to explore the open field for 8 min and the latency to feed (s) was recorded.
Chronic Unpredictable Stress (CUS) Conditions: Rats were exposed to a variable sequence of 12 unpredictable stressors, preventing habituation as described (Li, N. et al., Biol Psychiatry 69(8): 754-61 (2011)). The following twelve stressors were applied (2 per day, for 25 days): cage rotation, light on, light off, cold stress, isolation, swim stress, food and water deprivation, wet bedding, stroboscope, cage tilt, odor exposure and group housing. The animals in non-stressed (NS) groups were housed normally without the application of external stressors. Both NS and CUS rats were handled and weighed weekly.
Study Design. Thirty-two (32) male Sprague Dawley Male rats weighing between 175 and 200 g were randomized into 4 study groups (n=8/treatment group), following a 5-day acclimation period. On study day 0, rats received a single dose of either saline (Sal) or ketamine (Ket) in Groups 1 and 2, respectively, by intraperitoneal injection (i.p.). The rats in Group 3 and 4 received a single dose of the NV-5138 vehicle (Veh, 0.5% Methylcellulose/0.1% Tween-80) or NV-5138 (160 mg/kg), respectively, by oral gavage. All rats were subjected to the FUST on day 1, 24 hrs after dosing. On day 2, 48 hrs after dosing, the LMA of all rats was measured in an open field. Rats were then fasted for 20 hrs and subjected to the NSFT, 72 hrs post-dose.
Study Design: Fifty-six (56) male rats weighing between 175 and 200 g were randomized into 4 study groups (n=14/group), following a 5-day acclimation period. On study day minus 20, two groups of rats were subjected to CUS for 25 days and two groups of rats were housed normally serving as the NS group. On the day 21 of the CUS protocol, rats received a single dose of either Veh or NV-5138 (160 mg/kg) by oral gavage (day 0). The SPT and NSFT were performed 24 and 48 hrs post-administration (days 1 and 2), respectively. Upon completion of the behavioral tests, after 25 days of the CUS protocol a second dose of NV-5138 or Veh was administered on day 5 and rats were sacrificed 24 hrs later by conscious decapitation. Crude synaptosomes were prepared from the PFC and the synaptic proteins, GluR1 and PSD95 were quantitated by WB.
Study Design. Twenty (20) male rats weighing between 175 and 200 g were randomized into 3 study groups (n=6-7/group), following a 5-day acclimation period. All rats were surgically implanted with bilateral IT cannulas in the PFC 2 weeks prior to dosing. […] Thirty minutes following the intrathecal infusions, either NV-5138 vehicle (Veh-NV, 0.5% methylcellulose/0.1% Tween-80) or NV-5138 (160 mg/kg) was administered by oral gavage. Each treatment group was assessed at the designated time following oral dosing in FST 24 hrs (day 1) LMA 48 hrs (day 2) and the NSFT 72 hrs (day 3 following a 20 hr period of fasting). LMA was measured to rule out overall changes in generally locomotor activity. The study design is presented in Table 11 with timeline of surgical procedures, test article administration and behavioral tests is provided in FIG. 20
Study Design. Forty-eight (48) male rats weighing between 175 and 200 g were randomized into 6 study groups (n=8/group), following a 5-day acclimation period. A single dose of all test articles was administered on day 0 and the behavioral tests were performed 3, 7 and 10 days later. Groups 1 and 2 were dosed on day 0 with NV-5138 (160 mg/kg by oral gavage) and Ket (10 mg/kg by i.p. injection), respectively and subjected to a FST on day 3. […]

Each structure is given as a SMILES string. Where “and” joins values, the source holds several entries; their conditions need not be identical. Equal values may be shown once.

Regarding `CNC1(c2ccccc2Cl)CCCCC1=O` (stereo not shown) [Ket, ketamine, reference compound], the “decrease in the latency to feed (NSFT) vs Sal” value (Example A, Ket 10 mg/kg i.p. single dose, 72 hrs post-dose, p<0.01) was found to be 31%. In addition, the “NSFT vs Sal” value (Example G, Ket 10 mg/kg i.p. single dose, 10 days post-dose) is on record as “No significant difference”.

For the compound `CC(C)(C[C@H](N)C(=O)O)C(F)F` [NV-5138], where the note is “Example A, NV-5138 160 mg/kg oral single dose, 72 hrs post-dose, p<0.01”, the “decrease in the latency to feed (NSFT) vs Veh” value is listed as 36%. Besides, the “NSFT latency to feed” value stood at 520.1 ± 40.35 s (Example E, CUS rats, NV-5138 160 mg/kg oral, 48 hrs after treatment, p<0.0001 vs CUS Veh); 430.6 ± 25.3 s (Example E, non-stressed (NS) rats, NV-5138 160 mg/kg oral, 48 hrs after treatment, p<0.01 vs Veh); 510 ± 50 s (Example F, Veh-R IT infusion then NV-5138 160 mg/kg oral, 72 hrs). Also, the “decrease in NSFT latency to feed vs Veh-R/Veh-NV” value (Example F, Veh-R IT infusion then NV-5138 160 mg/kg oral, 72 hrs, p<0.05, 160 mg/kg) was 46% and 32%. Further, the “NSFT latency to feed, R/NV-5138 vs Veh-R/Veh-NV” value (Example F, rapamycin (R, 0.01 nmol) IT infusion into PFC 30 min before NV-5138 160 mg/kg oral, 72 hrs) is “lack of significant effect on latency to feed”. Also, the “NSFT vs Veh” value (Example G, NV-5138 160 mg/kg oral single dose, 10 days post-dose) is “No significant difference”. The NSFT result (Example I, NV-5138 80 mg/kg oral daily for 7 days, day 9, 72 hrs post-last dose) was “Significant effects”.

The values above are taken from patent publication US20210228523A1, “MODULATORS OF SESTRIN-GATOR2 INTERACTION AND USES THEREOF” (Navitor Pharmaceuticals, Inc., priority 2017, published 2021).
